Laboratory results published in publication PMC5218480 (PLoS ONE, 2017).

System: MV-4-11 cells
Assay: Gene expression microarray analysis (Affymetrix PrimeView) and GSEA
Format: cell-based, human
Parameters: RFU PODN (11730768_x_at) / Fold change /veh PODN (11730768_x_at) / RFU LINC00158 (11744669_a_at) / Fold change /veh LINC00158 (11744669_a_at) / RFU DUSP10 (11751237_a_at) / Fold change /veh DUSP10 (11751237_a_at) / RFU ID3 (11757404_x_at) / Fold change /veh ID3 (11757404_x_at) / RFU PLEKHG5 (11737974_s_at) / Fold change /veh PLEKHG5 (11737974_s_at) / RFU LRRC4B (11730491_at) / Fold change /veh LRRC4B (11730491_at) / RFU GIMAP4 (11747438_a_at) / Fold change /veh GIMAP4 (11747438_a_at) / RFU KRT8 (11758183_x_at) / Fold change /veh KRT8 (11758183_x_at) / RFU CNN1 (11734310_a_at) / Fold change /veh CNN1 (11734310_a_at) / RFU VPS37D (11726825_at) / Fold change /veh VPS37D (11726825_at) / RFU C10orf10 (11716522_x_at) / Fold change /veh C10orf10 (11716522_x_at) / RFU KIR2DL2 /// KIR2DL4 /// KIR2DL5A /// KIR2DL5B /// KIR2DS1 /// KIR2DS2 /// KIR2DS3 /// KIR2DS4 /// KIR3DL3 /// KIR3DL3 /// KIR3DS1 (11738374_at) / Fold change /veh KIR2DL2 /// KIR2DL4 /// KIR2DL5A /// KIR2DL5B /// KIR2DS1 /// KIR2DS2 /// KIR2DS3 /// KIR2DS4 /// KIR3DL3 /// KIR3DL3 /// KIR3DS1 (11738374_at) / RFU C1QL1 (11718748_at) / Fold change /veh C1QL1 (11718748_at) / RFU TMPRSS4 (11747572_a_at) / Fold change /veh TMPRSS4 (11747572_a_at) / RFU HAMP (11756126_x_at) / Fold change /veh HAMP (11756126_x_at) / RFU RNFT2 (11725882_a_at) / Fold change /veh RNFT2 (11725882_a_at) / RFU NR4A2 (11747474_a_at) / Fold change /veh NR4A2 (11747474_a_at) / RFU ABCC12 (11746883_a_at) / Fold change /veh ABCC12 (11746883_a_at) / RFU TMEM136 (11760407_x_at) / Fold change /veh TMEM136 (11760407_x_at) / RFU CLDN22 /// WWC2 (11732394_at) / Fold change /veh CLDN22 /// WWC2 (11732394_at) / RFU HLA-DPB1 (11760878_x_at) / Fold change /veh HLA-DPB1 (11760878_x_at) / RFU SPINT1 (11716480_a_at) / Fold change /veh SPINT1 (11716480_a_at) / RFU GAP43 (11754022_s_at) / Fold change /veh GAP43 (11754022_s_at) / RFU A4GNT (11735810_at) / Fold change /veh A4GNT (11735810_at) / RFU PRB3 (11715151_x_at) / Fold change /veh PRB3 (11715151_x_at) / RFU TUBB4B (11761932_at) / Fold change /veh TUBB4B (11761932_at) / RFU CAPN14 (11732068_a_at) / Fold change /veh CAPN14 (11732068_a_at) / RFU TMCC2 (11721928_a_at) / Fold change /veh TMCC2 (11721928_a_at) / RFU IRGQ (11745062_a_at) / Fold change /veh IRGQ (11745062_a_at) / RFU FAM174B (11720279_a_at) / Fold change /veh FAM174B (11720279_a_at) / RFU TMPRSS4 (11748680_a_at) / Fold change /veh TMPRSS4 (11748680_a_at) / RFU FAM212B (11763350_a_at) / Fold change /veh FAM212B (11763350_a_at) / RFU PLEKHG5 (11743358_a_at) / Fold change /veh PLEKHG5 (11743358_a_at) / RFU ZSCAN30 (11745921_a_at) / Fold change /veh ZSCAN30 (11745921_a_at) / RFU CMKLR1 (11741424_a_at) / Fold change /veh CMKLR1 (11741424_a_at) / RFU LOC101060620 /// MAPK8IP1 (11723275_at) / Fold change /veh LOC101060620 /// MAPK8IP1 (11723275_at) / RFU SPTSSB (11747773_x_at) / Fold change /veh SPTSSB (11747773_x_at) / RFU PRSS12 (11739890_at) / Fold change /veh PRSS12 (11739890_at) / RFU BIN1 (11741810_x_at) / Fold change /veh BIN1 (11741810_x_at) / RFU WNT11 (11732464_a_at) / Fold change /veh WNT11 (11732464_a_at) / RFU C10orf10 (11716521_a_at) / Fold change /veh C10orf10 (11716521_a_at) / RFU C5orf56 (11738089_at) / Fold change /veh C5orf56 (11738089_at) / RFU CYB561 (11721691_x_at) / Fold change /veh CYB561 (11721691_x_at) / RFU ANKRD19P (11752326_a_at) / Fold change /veh ANKRD19P (11752326_a_at) / RFU OR2T12 /// OR2T33 /// OR2T8 (11738714_s_at) / Fold change /veh OR2T12 /// OR2T33 /// OR2T8 (11738714_s_at) / RFU VCAN (11748164_a_at) / Fold change /veh VCAN (11748164_a_at) / RFU JSRP1 (11732532_at) / Fold change /veh JSRP1 (11732532_at) / RFU KRTAP10-11 (11738290_x_at) / Fold change /veh KRTAP10-11 (11738290_x_at) / RFU MYO3A (11730013_a_at) / Fold change /veh MYO3A (11730013_a_at) / RFU EBF3 (11725865_a_at) / Fold change /veh EBF3 (11725865_a_at) / RFU CAMK2N1 (11719241_x_at) / Fold change /veh CAMK2N1 (11719241_x_at) / RFU C5orf56 (11738088_a_at) / Fold change /veh C5orf56 (11738088_a_at) / RFU OLFML3 (11715873_a_at) / Fold change /veh OLFML3 (11715873_a_at) / RFU LOC100653217 /// NTM (11731650_a_at) / Fold change /veh LOC100653217 /// NTM (11731650_a_at) / RFU MAPK11 (11762145_a_at) / Fold change /veh MAPK11 (11762145_a_at) / RFU FIZ1 (11724087_x_at) / Fold change /veh FIZ1 (11724087_x_at) / RFU OASL (11726364_x_at) / Fold change /veh OASL (11726364_x_at) / RFU SOX15 (11748057_x_at) / Fold change /veh SOX15 (11748057_x_at) / RFU CD79A (11719716_a_at) / Fold change /veh CD79A (11719716_a_at) / RFU HIST1H1D (11736915_at) / Fold change /veh HIST1H1D (11736915_at) / RFU CASKIN2 (11723855_a_at) / Fold change /veh CASKIN2 (11723855_a_at) / RFU LOC730098 (11760151_x_at) / Fold change /veh LOC730098 (11760151_x_at) / RFU OR4N2 (11742367_at) / Fold change /veh OR4N2 (11742367_at) / RFU PRRT2 (11749266_a_at) / Fold change /veh PRRT2 (11749266_a_at) / RFU SNX32 (11753110_a_at) / Fold change /veh SNX32 (11753110_a_at) / RFU CDHR5 (11726645_a_at) / Fold change /veh CDHR5 (11726645_a_at) / RFU RCAN1 (11760418_a_at) / Fold change /veh RCAN1 (11760418_a_at) / RFU FAM167A (11723789_a_at) / Fold change /veh FAM167A (11723789_a_at) / RFU FAM26E (11764081_at) / Fold change /veh FAM26E (11764081_at) / RFU ISYNA1 (11749810_s_at) / Fold change /veh ISYNA1 (11749810_s_at) / RFU ACY1 (11761880_at) / Fold change /veh ACY1 (11761880_at) / RFU 11764098_at / Fold change /veh 11764098_at / RFU SAMD14 (11745864_x_at) / Fold change /veh SAMD14 (11745864_x_at) / RFU NPB (11741838_a_at) / Fold change /veh NPB (11741838_a_at) / RFU TMPRSS6 (11731388_a_at) / Fold change /veh TMPRSS6 (11731388_a_at) / RFU KRTAP10-2 (11738614_at) / Fold change /veh KRTAP10-2 (11738614_at) / RFU ARHGAP8 /// PRR5-ARHGAP8 (11727945_x_at) / Fold change /veh ARHGAP8 /// PRR5-ARHGAP8 (11727945_x_at) / RFU KRTAP5-7 /// NADSYN1 (11734609_at) / Fold change /veh KRTAP5-7 /// NADSYN1 (11734609_at) / RFU RASL12 (11751679_a_at) / Fold change /veh RASL12 (11751679_a_at) / RFU CDKN2B (11736163_a_at) / Fold change /veh CDKN2B (11736163_a_at) / RFU PRF1 (11729649_at) / Fold change /veh PRF1 (11729649_at) / RFU, ZNF638 /// ZNF638-IT1 / Fold change vs veh, ZNF638 /// ZNF638-IT1 / RFU, PANK3 / Fold change vs veh, PANK3 / RFU, SH3YL1 / Fold change vs veh, SH3YL1 / RFU, ZEB2 / Fold change vs veh, ZEB2 / RFU, NRIP1 / Fold change vs veh, NRIP1 / RFU, PTTG1IP / Fold change vs veh, PTTG1IP / RFU, CAPN2 / Fold change vs veh, CAPN2 / RFU, MED14 / Fold change vs veh, MED14 / RFU, SNORA58 / Fold change vs veh, SNORA58 / RFU, C1orf63 / Fold change vs veh, C1orf63 / RFU, LRRFIP1 / Fold change vs veh, LRRFIP1 / RFU, NDUFAF7 / Fold change vs veh, NDUFAF7 / RFU, SLC12A2 / Fold change vs veh, SLC12A2 / RFU, IBTK / Fold change vs veh, IBTK / RFU, ESF1 / Fold change vs veh, ESF1 / Fold change vs veh, TMEM50B / RFU, TAOK1 / Fold change vs veh, TAOK1 / RFU, ACBD3 / Fold change vs veh, ACBD3 / RFU, TMA16 / Fold change vs veh, TMA16 / RFU, RWDD3 / Fold change vs veh, RWDD3 / RFU, BCAT1 / Fold change vs veh, BCAT1 / RFU, EDEM3 / Fold change vs veh, EDEM3 / RFU, TMEM33 / Fold change vs veh, TMEM33 / RFU, WDR75 / Fold change vs veh, WDR75 / RFU, AHCTF1 / Fold change vs veh, AHCTF1 / RFU, TFRC / Fold change vs veh, TFRC / RFU, ZDHHC17 / Fold change vs veh, ZDHHC17 / RFU, NOM1 / Fold change vs veh, NOM1 / RFU, ARL8B / Fold change vs veh, ARL8B / RFU, ZBTB11 / Fold change vs veh, ZBTB11 / RFU, TAMM41 / Fold change vs veh, TAMM41 / RFU, KIAA1704 /// LOC100996395 / Fold change vs veh, KIAA1704 /// LOC100996395 / RFU, ING1 / Fold change vs veh, ING1 / RFU, TRMT61B / Fold change vs veh, TRMT61B / RFU, FUBP3 / Fold change vs veh, FUBP3 / RFU, TP53 / Fold change vs veh, TP53 / RFU, TNKS2 / Fold change vs veh, TNKS2 / RFU, ZFP14 / Fold change vs veh, ZFP14 / RFU, ACTR2 / Fold change vs veh, ACTR2 / RFU, PPP3R1 / Fold change vs veh, PPP3R1 / RFU, PIK3R1 / Fold change vs veh, PIK3R1 / RFU, HNRNPA1 / Fold change vs veh, HNRNPA1 / RFU, RNF170 / Fold change vs veh, RNF170 / RFU, ZNF28 / Fold change vs veh, ZNF28 / RFU, RNGTT / Fold change vs veh, RNGTT / RFU, OGT / Fold change vs veh, OGT / RFU, BRD1 / Fold change vs veh, BRD1 / RFU, MARS / Fold change vs veh, MARS / RFU, ZNF655 / Fold change vs veh, ZNF655 / RFU, FAHD1 / Fold change vs veh, FAHD1 / RFU, BDP1 / Fold change vs veh, BDP1 / RFU, LRRCC1 / Fold change vs veh, LRRCC1 / RFU, ARID1A / Fold change vs veh, ARID1A / RFU, ZNF146 / Fold change vs veh, ZNF146 / RFU, ZNF330 / Fold change vs veh, ZNF330 / RFU, GPN3 / Fold change vs veh, GPN3 / RFU, C9orf123 / Fold change vs veh, C9orf123 / RFU, N4BP2L2 / Fold change vs veh, N4BP2L2 / RFU, ARFIP1 / Fold change vs veh, ARFIP1 / RFU, FAM179B / Fold change vs veh, FAM179B / RFU, BCL10 / Fold change vs veh, BCL10 / RFU, UHRF1BP1L / Fold change vs veh, UHRF1BP1L / RFU, BET1 / Fold change vs veh, BET1 / RFU, CNOT2 / Fold change vs veh, CNOT2 / RFU, ZNF268 / Fold change vs veh, ZNF268 / Fold change vs veh, ZNF507 / RFU, DGCR2 / Fold change vs veh, DGCR2 / RFU, WDSUB1 / Fold change vs veh, WDSUB1 / Fold change vs veh, HSP90B1 /// MIR3652 / RFU, ADSS / Fold change vs veh, ADSS / RFU, GK / Fold change vs veh, GK / RFU, ZNF148 / Fold change vs veh, ZNF148 / RFU, TAF9 / Fold change vs veh, TAF9 / RFU, SLC1A5 / Fold change vs veh, SLC1A5 / RFU, SLMO2 / Fold change vs veh, SLMO2 / RFU, ABCC4 / Fold change vs veh, ABCC4 / RFU, LOC101060439 /// RAP1B / Fold change vs veh, LOC101060439 /// RAP1B / RFU, RFX7 / Fold change vs veh, RFX7 / RFU, GTPBP10 / Fold change vs veh, GTPBP10 / RFU, CNEP1R1 / Fold change vs veh, CNEP1R1 / RFU, BIVM-ERCC5 /// ERCC5 / Fold change vs veh, BIVM-ERCC5 /// ERCC5 / RFU, ILF3 / Fold change vs veh, ILF3 / RFU 11762660_at / Fold change /veh 11762660_at / RFU VCAN (11757783_s_at) / Fold change /veh VCAN (11757783_s_at) / RFU DDX43 (11728927_at) / Fold change /veh DDX43 (11728927_at) / RFU KRT8 (11758188_x_at) / Fold change /veh KRT8 (11758188_x_at) / RFU NKD1 (11759106_at) / Fold change /veh NKD1 (11759106_at) / RFU SRD5A1 (11742802_a_at) / Fold change /veh SRD5A1 (11742802_a_at) / RFU TPSAB1 /// TPSB2 (11721975_s_at) / Fold change /veh TPSAB1 /// TPSB2 (11721975_s_at) / RFU GSTM3 (11746129_a_at) / Fold change /veh GSTM3 (11746129_a_at) / RFU IL23R (11737362_x_at) / Fold change /veh IL23R (11737362_x_at) / RFU TMEM51 (11727254_a_at) / Fold change /veh TMEM51 (11727254_a_at) / RFU PIWIL2 (11732686_x_at) / Fold change /veh PIWIL2 (11732686_x_at) / RFU ORM1 (11744905_x_at) / Fold change /veh ORM1 (11744905_x_at) / RFU CCDC152 (11743942_at) / Fold change /veh CCDC152 (11743942_at) / RFU ECM1 (11717891_a_at) / Fold change /veh ECM1 (11717891_a_at) / RFU IL23R (11748794_a_at) / Fold change /veh IL23R (11748794_a_at) / RFU TNFAIP8L3 (11732012_x_at) / Fold change /veh TNFAIP8L3 (11732012_x_at) / RFU MBOAT4 (11741988_at) / Fold change /veh MBOAT4 (11741988_at) / RFU 11764193_at / Fold change /veh 11764193_at / RFU TMEM53 (11763286_at) / Fold change /veh TMEM53 (11763286_at) / RFU MAGEB2 (11727129_at) / Fold change /veh MAGEB2 (11727129_at) / RFU TMEM200A (11744735_a_at) / Fold change /veh TMEM200A (11744735_a_at) / RFU CCDC152 (11751479_a_at) / Fold change /veh CCDC152 (11751479_a_at) / RFU FAM211A (11726209_a_at) / Fold change /veh FAM211A (11726209_a_at) / RFU RGS16 (11746705_a_at) / Fold change /veh RGS16 (11746705_a_at) / RFU VCAN (11755009_s_at) / Fold change /veh VCAN (11755009_s_at) / RFU RHOB (11743442_s_at) / Fold change /veh RHOB (11743442_s_at) / RFU RGS16 (11720943_a_at) / Fold change /veh RGS16 (11720943_a_at) / RFU RGS16 (11720944_at) / Fold change /veh RGS16 (11720944_at) / RFU, VPS4B / Fold change vs veh, VPS4B / RFU, CREB1 / Fold change vs veh, CREB1 / RFU, DNAJC13 / Fold change vs veh, DNAJC13 / RFU, GNAQ / Fold change vs veh, GNAQ / RFU, CDK5R1 / Fold change vs veh, CDK5R1 / RFU, ZRANB3 / Fold change vs veh, ZRANB3 / RFU, CUL4A / Fold change vs veh, CUL4A / RFU, CCNY / Fold change vs veh, CCNY / RFU, UFL1 / Fold change vs veh, UFL1 / RFU, COG3 / Fold change vs veh, COG3 / RFU, DIAPH2 / Fold change vs veh, DIAPH2 / RFU, SKA2 / Fold change vs veh, SKA2 / RFU, AFF3 / Fold change vs veh, AFF3 / RFU, LMF1 / Fold change vs veh, LMF1 / RFU, IPO11 / Fold change vs veh, IPO11 / RFU, DFFB / Fold change vs veh, DFFB / RFU, FOXP1 / Fold change vs veh, FOXP1 / RFU, CARD8 / Fold change vs veh, CARD8 / RFU, STRN3 / Fold change vs veh, STRN3 / RFU, ADK / Fold change vs veh, ADK / RFU, RASSF2 / Fold change vs veh, RASSF2 / RFU, WIPF1 / Fold change vs veh, WIPF1 / RFU, LARP1B / Fold change vs veh, LARP1B / RFU, RASA1 / Fold change vs veh, RASA1 / RFU, RB1 / Fold change vs veh, RB1 / RFU, PPFIA1 / Fold change vs veh, PPFIA1 / RFU, MAT2A / Fold change vs veh, MAT2A / RFU, CCT5 / Fold change vs veh, CCT5 / RFU, WDR92 / Fold change vs veh, WDR92 / RFU, CUX1 / Fold change vs veh, CUX1 / RFU, TTC7A / Fold change vs veh, TTC7A / RFU, TMEM135 / Fold change vs veh, TMEM135 / RFU, DEPTOR / Fold change vs veh, DEPTOR / RFU, CPM / Fold change vs veh, CPM / RFU, DNAJB6 / Fold change vs veh, DNAJB6 / RFU, CACNA2D3 / Fold change vs veh, CACNA2D3 / RFU, DTX4 / Fold change vs veh, DTX4 / RFU, TFCP2 / Fold change vs veh, TFCP2 / RFU, GMCL1 /// GMCL1P1 / Fold change vs veh, GMCL1 /// GMCL1P1 / RFU, AEBP2 / Fold change vs veh, AEBP2 / RFU, SNHG1 /// SNORD22 /// SNORD25 /// SNORD26 /// SNORD27 /// SNORD28 /// SNORD29 /// SNORD31 / Fold change vs veh, SNHG1 /// SNORD22 /// SNORD25 /// SNORD26 /// SNORD27 /// SNORD28 /// SNORD29 /// SNORD31 / Fold change (Aza/veh), C12orf56 (ProbeSet 11735607_a_at) / Fold change (ACY-1035/veh), C12orf56 (ProbeSet 11735607_a_at) / Fold change (Aza/veh), FGFR1OP (ProbeSet 11751329_s_at) / Fold change (ACY-1035/veh), FGFR1OP (ProbeSet 11751329_s_at) / Fold change (Aza/veh), VPS36 (ProbeSet 11739960_a_at) / Fold change (ACY-1035/veh), VPS36 (ProbeSet 11739960_a_at) / RFU SYPL1 (11715823_x_at) / Fold change /veh SYPL1 (11715823_x_at) / RFU IGFBP7 (11715501_s_at) / Fold change /veh IGFBP7 (11715501_s_at) / RFU REEP3 (11722064_at) / Fold change /veh REEP3 (11722064_at) / RFU IGLL1 (11728026_x_at) / Fold change /veh IGLL1 (11728026_x_at): dose or concentration left out as unconfirmed
Conditions: ProbeSet 11717702_a_at; LIST D

## Nc1ccc(-c2cccs2)cc1NC(=O)c1ccc2c(c1)cc(C1CC1)n2CCN1CCOCC1 [ACY-1035]
  Fold change vs veh, RB1: 0.96
